Measurements taken from patent US7402424B2, “Spectroscopic pH measurement at high-temperature and/or high-pressure” (Schlumberger Technology Corporation, priority 2006, dated 2008).
Like-named read-outs stand apart in the source and are kept apart here.

Legend:
[1] = Molar absorptivity ε of acid and base forms of reagents at 570 nm and 445 nm; assay type: physicochemical; settings: for ε at 445 nm (λ1), Acid / ε at 570 nm (λ2), Acid: acid form; for ε at 445 nm (λ1), Acid / ε at 445 nm (λ1), Base / ε at 570 nm (λ2), Base: in M-1·cm-1 (unit assumed); for ε at 445 nm (λ1), Base / ε at 570 nm (λ2), Base: base form (sodium salt of the reagent)
[2] = pKa of reagents (reagent properties used in the model of FIG. 2a); assay type: physicochemical; settings: reagent property used in the model of FIG. 2a

| SMILES | ε at 445 nm (λ1), Acid [1] | ε at 570 nm (λ2), Acid [1] [M⁻¹ cm⁻¹] | ε at 445 nm (λ1), Base [1] | ε at 570 nm (λ2), Base [1] | pKa [2] | pKa ([2]; read-out: pKa) |
| --- | --- | --- | --- | --- | --- | --- |
| O=S1(=O)OC(c2cc(Br)c(O)c(Br)c2)(c2cc(Br)c(O)c(Br)c2)c2ccccc21 [Bromophenol Blue] | 21711 | 378 | 1981 | 46859 | 4.11 |  |
| O=S1(=O)OC(c2ccc(O)c(Cl)c2)(c2ccc(O)c(Cl)c2)c2ccccc21 [Chlorophenol Red] | 18136 | 58 | 1985 | 54247 | 6.11 |  |
| O=S1(=O)OC(c2ccc(O)cc2)(c2ccc(O)cc2)c2ccccc21 [Phenol Red] |  |  |  |  |  | 7.79 |
